In patent publication US8415307B1, “Antibiotic compositions for the treatment of gram negative infections” (priority 2010, dated 2013):
*1 amine or outer side, *2 acyl side, *3 side chain or, on linkers, in order; H or OH if unused. Where a SMILES comes first, the peptide text is derived from it. Bridges are numbered along the chain shown (N, C = ends). [ ]: non-standard residue; d: D form. The star is where a group is joined. ξ: configuration not given here. Thr(3ξ) = CC(O)[C@H](N)C(=O)O; NH(2-ClPh) = Clc1ccccc1N*; X1 = CC[C@H](C)CCCCC(=O)*; dDab = NCC[C@@H](N)C(=O)O; Dab = NCC[C@H](N)C(=O)O; CO = O=C([*:1])[*:2]; ξDab = NCCC(N)C(=O)O

Legend:
P. aeru = assay: MIC50 and MIC90, panel of Gram negative bacterial strains (CLSI broth microdilution); assay type: cell-based, P. Aeruginosa; parameters: key to P. aeru MIC50 / P. aeru MIC90: A: a measured MIC value equal to that of polymyxin B; a measured MIC value less than the corresponding MIC value measured for polymyxin B; a measured MIC value greater than the corresponding MIC value measured for polymyxin B; settings: for P. aeru MIC50 / P. aeru MIC90: class relative to polymyxin B, some strains multi-drug resistant
Procedure: (§1) The potency and spectrum of Compound 5 was studied using a panel of Gram negative bacterial strains.
(§2) MIC testing can be performed according to Clinical and Laboratory Standards Institute (CLSI) M7-A7 (2006) broth microdilution methods. Unless otherwise indicated, MIC values are provided in units of micrograms per milliliter.
(§3) One day prior to testing, individual colonies were isolated by streaking onto rich, non-selective Tryptic Soy agar with 5% lysed sheeps blood (TSAB) with incubation at 35-37° C. for 18-24 hours.
(§4) Cultures were prepared by touching 3-5 colonies into 3 mL of cation-adjusted Mueller Hinton Broth (caMHB) in a 14-mL tube (caMHB was prepared and sterilized according to manufacturer's specifications).
(§5) OD600 of growing cultures was measured and adjusted to approximately 10^5 colony forming units per mL (CFU/mL) in caMHB for MIC inoculation (approximately OD600 0.001).
(§6) Diluted cultures were used to inoculate 50 μL per well in broth microdilution assays (final volume 100 μl per well; compounds were prepared in two-fold dilutions).
(§7) Plates were incubated 16-20 hours at 37° C., with shaking at 200 rpm.
(§8) OD600 was determined for all wells. Growth was defined as OD600>0.1. MICs were defined as the lowest concentration producing no visible turbidity (OD600<0.1).

P. aeruginosa #44 = assay: MICs for P. aeruginosa #44 in the presence of surfactant; assay type: cell-based; parameters: key: A: a MIC value measurement that is the same as that observed for polymyxin B; a MIC value measured that is lower than the comparable value observed for polymxin B; a MIC value measured that is higher than the comparable value observed for polymyxin B; settings: class relative to polymyxin B; for MIC P. aeruginosa #44, 10% surfactant: 10% surfactant (Survanta) in caMHB; for MIC P. aeruginosa #44, 40% surfactant: 40% surfactant (Survanta) in caMHB
Procedure: (§9) Antibacterial potency can be assessed by broth microdilution according to CLSI guidelines, plates can be incubated at 37° C., and aeration (rotation at 200 rpm) can be employed. In some assays, surfactant (Survanta, Abbott Laboratories) can be added to give a final concentration of 1, 10 and 40% in caMHB. Native polymyxin A, polymyxin B and the comparator compound of Formula II (polymyxin B decapeptide with an o-chlorophenyl urea tail) were included for comparison.

A. baum = assay: MIC50 and MIC90, panel of Gram negative bacterial strains (CLSI broth microdilution); assay type: cell-based, A. baumanni; parameters: key to A. baum MIC50 / A. baum MIC90: A: a measured MIC value equal to that of polymyxin B; a measured MIC value less than the corresponding MIC value measured for polymyxin B; a measured MIC value greater than the corresponding MIC value measured for polymyxin B; settings: for A. baum MIC50 / A. baum MIC90: class relative to polymyxin B, some strains multi-drug resistant
Procedure: as §1, §2, §3, §4, §5, §6, §7, §8

[1] = Acute toxicity testing in rats; assay type: in vivo, Sprague-Dawley rat
Procedure: One female Sprague-Dawley rat was administered a 1 mg/kg dose of the test Compound 5. Clinical observations were taken immediately following the administration of compound and at 0.5, 1, 2 and 4 hours post-dose.

P. aeruginosa 44 [2] = assay: MIC against the primary screening panel (broth microdilution); assay type: cell-based; parameters: key: A: a MIC value measurement that is the same as that observed for polymyxin B; a MIC value measured that is lower than the comparable value observed for polymxin B; a MIC value measured that is higher than the comparable value observed for polymyxin B; settings: class relative to polymyxin B
Procedure: as §9

[3] = tested on: K. pneumoniae 1800 (PMX-resistant); assay: as above; assay type: cell-based; parameters: key: A: a MIC value measurement that is the same as that observed for polymyxin B; a MIC value measured that is lower than the comparable value observed for polymxin B; a MIC value measured that is higher than the comparable value observed for polymyxin B; settings: class relative to polymyxin B
Procedure: as §9

K. pneumoniae 933 = assay: as above; assay type: cell-based; parameters: key: A: a MIC value measurement that is the same as that observed for polymyxin B; a MIC value measured that is lower than the comparable value observed for polymxin B; a MIC value measured that is higher than the comparable value observed for polymyxin B; settings: class relative to polymyxin B
Procedure: as §9

A. baumannii 1570 = assay: as above; assay type: cell-based; parameters: key: A: a MIC value measurement that is the same as that observed for polymyxin B; a MIC value measured that is lower than the comparable value observed for polymxin B; a MIC value measured that is higher than the comparable value observed for polymyxin B; settings: class relative to polymyxin B
Procedure: as §9

E. coli [4] = assay: MIC50 and MIC90, panel of Gram negative bacterial strains (CLSI broth microdilution); assay type: cell-based; parameters: key to E. coli MIC50 / E. coli MIC90: A: a measured MIC value equal to that of polymyxin B; a measured MIC value less than the corresponding MIC value measured for polymyxin B; a measured MIC value greater than the corresponding MIC value measured for polymyxin B; settings: for E. coli MIC50 / E. coli MIC90: class relative to polymyxin B, some strains multi-drug resistant
Procedure: as §1, §2, §3, §4, §5, §6, §7, §8

A. baumannii = assay: MIC50-90 against small panels (n = 35); assay type: cell-based; parameters: key: A: a MIC value measurement that is the same as that observed for polymyxin B; a MIC value measured that is lower than the comparable value observed for polymxin B; a MIC value measured that is higher than the comparable value observed for polymyxin B; settings: small panel n = 35; class relative to polymyxin B
From the text: (§10) MIC's refer to the concentration of each antimicrobial agent required to inhibit the growth of a bacterial isolate, as well as the corresponding concentrations required to inhibit 50% and 90% of each group of microorganisms tested [MIC50 and MIC90, respectively, consistent with definitions in the “Instructions to Authors” for Antimicrobial Agents and Chemotherapy (Antimicrobial Agents and Chemotherapy, January 2010, p. 1-23, Vol. 54, No. 1, incorporated herein by reference)]. When only up to nine isolates of a species are tested, MIC's are reported as the MIC range of each antimicrobial agent tested. MIC values provided as numerical ranges for testing of a single bacterial strain indicate the range of MIC values obtained in repeated tests of the indicated bacteria strain.
as §9

K. pneumoniae = assay: MIC50-90 against small panels (n = 35); assay type: cell-based; parameters: key: A: a MIC value measurement that is the same as that observed for polymyxin B; a MIC value measured that is lower than the comparable value observed for polymxin B; a MIC value measured that is higher than the comparable value observed for polymyxin B; settings: small panel n = 35; class relative to polymyxin B
From the text: as §10, §9

E. coli [5] = assay: MIC50-90 against small panels (n = 35); assay type: cell-based; parameters: key: A: a MIC value measurement that is the same as that observed for polymyxin B; a MIC value measured that is lower than the comparable value observed for polymxin B; a MIC value measured that is higher than the comparable value observed for polymyxin B; settings: small panel n = 35; class relative to polymyxin B
From the text: as §10, §9

P. aeruginosa = assay: MIC50-90 against small panels (n = 35); assay type: cell-based; parameters: key: A: a MIC value measurement that is the same as that observed for polymyxin B; a MIC value measured that is lower than the comparable value observed for polymxin B; a MIC value measured that is higher than the comparable value observed for polymyxin B; settings: small panel n = 35; class relative to polymyxin B
From the text: as §10, §9

K. pneu = assay: MIC50 and MIC90, panel of Gram negative bacterial strains (CLSI broth microdilution); assay type: cell-based, K. pneumonia; parameters: key to K. pneu MIC50 / K. pneu MIC90: A: a measured MIC value equal to that of polymyxin B; a measured MIC value less than the corresponding MIC value measured for polymyxin B; a measured MIC value greater than the corresponding MIC value measured for polymyxin B; settings: for K. pneu MIC50 / K. pneu MIC90: class relative to polymyxin B, some strains multi-drug resistant
Procedure: as §1, §2, §3, §4, §5, §6, §7, §8

P. aeruginosa 44 [6] = assay: Neutropenic mouse lung infection model; assay type: in vivo; settings: for Lungs cleared within one log10 of limit of detection: mouse lung model, 8 through 20 mg/kg dose levels
Procedure: Compound of Formula (Ia) was tested in a murine thigh model. For the thigh model, female CD-1 mice were rendered neutropenic by IP injection on days −4 and −1 with 150 and 100 mg/kg cyclophosphamide, respectively. On day 0 mice were infected with 1×10^7 colony-forming units (cfu) of A. baumannii 1570 in one thigh muscle, and then administered compound SC in a dose ranging from 2 to 12 mg/kg at 1 and 6 hours post-infection.
The mouse lung model was run in the same manner as the thigh infection model, except that mice were infected IN with 1×10^7 cfu of P. aeruginosa 44 on day 0. Doses administered in the lung study ranged from 8 to 20 mg/kg. The ED−3log10 was based on cfu determination from the lung tissue 24 hours post-infection.

[7] = 1 mg/kg i.v., female Sprague-Dawley rat

Compound	MIC P. aeruginosa #44, 0% surfactant (P. aeruginosa #44)	MIC P. aeruginosa #44, 10% surfactant (P. aeruginosa #44)	MIC P. aeruginosa #44, 40% surfactant (P. aeruginosa #44)	A. baum MIC50 (A. baum)	A. baum MIC90 (A. baum)	MIC P. aeruginosa 44 (P. aeruginosa 44 [2])	MIC K. pneumoniae 1800 (PMX-resistant) [3]	MIC K. pneumoniae 933 (K. pneumoniae 933)	MIC A. baumannii 1570 (A. baumannii 1570)	E. coli MIC50 (E. coli [4])	E. coli MIC90 (E. coli [4])	A. baumannii MIC50 (A. baumannii)	A. baumannii MIC90 (A. baumannii)	K. pneumoniae MIC50 (K. pneumoniae)	K. pneumoniae MIC90 (K. pneumoniae)	E. coli MIC50 (E. coli [5])	E. coli MIC90 (E. coli [5])	P. aeruginosa MIC50 (P. aeruginosa)	P. aeruginosa MIC90 (P. aeruginosa)	K. pneu MIC50 (K. pneu)	other results
CC(C)C[C@H]1NC(=O)[C@H](CCN)NC(=O)[C@@H](NC(=O)[C@@H](CCN)NC(=O)[C@@H](NC(=O)[C@H](CCN)NC(=O)[C@H]2C[C@@H]2c2ccccc2)C(C)O)CCNC(=O)[C@H](C(C)O)NC(=O)[C@H](CCN)NC(=O)[C@H](CCN)NC(=O)[C@H](C(C)O)NC1=O (single isomer, unassigned) [Compound 5]	C	B	B	C	C	C	C	A	C	C	A	C	C	C	C	C	A	A	C	C	activity against P. Aeruginosa isolates (P. aeru): active; P. aeru MIC50 (P. aeru): A; P. aeru MIC90 (P. aeru): C; activity against A. baumanni isolates (A. baum): active; Acute (anaphylactoid) observations ([1]; 1 mg/kg i.v., 1 female Sprague-Dawley rat): anaphylactoid response was observed; Clinical signs by 0.5 hours [1, 7]: these signs diminished, but the rat remained hypoactive; Clinical signs by 1 hour [1, 7]: no clinical signs and appeared normal; Clinical signs immediately following the dose [1, 7]: flushed ears, abnormal gait, hypoactivity and squinty eyes; activity against E. coli isolates (E. coli [4]): active; activity against K. pneumonia isolates (K. pneu): active; K. pneu MIC90 (K. pneu): C; Lungs cleared within one log10 of limit of detection (P. aeruginosa 44 [6]): Lungs cleared within one log10 of limit of detection; ED−3log10 (P. aeruginosa 44 [6]; neutropenic mouse lung, P. aeruginosa 44, SC, BID×1d, cfu 24 hours post-infection, experiment with Formula (Ia)): 6.35 mg/kg
CC(C)C[C@@H]1NC(=O)[C@@H](Cc2ccccc2)NC(=O)[C@H](CCN)NC(=O)C(NC(=O)[C@H](CCN)NC(=O)[C@@H](NC(=O)[C@H](CCN)NC(=O)Nc2ccccc2Cl)C(C)O)CCNC(=O)[C@H](C(C)O)NC(=O)[C@H](CCN)NC(=O)C(CCN)NC1=O (stereo partly shown) [Formula (II) comparator] ({NH(2-ClPh)-CO}-[Dab][Thr(3ξ)][Dab][ξDab][Dab][dF]L[ξDab][Dab][Thr(3ξ)]; lactam 4-C)	C	B	A	C	C	C	C	C	C	C	C	C	C	C	C	C	C	B	A	C	P. aeru MIC50 (P. aeru; listed as 2): B and A; P. aeru MIC90 (P. aeru; listed as 2): A and C; K. pneu MIC90 (K. pneu): C; Lungs cleared within one log10 of limit of detection (P. aeruginosa 44 [6]): not seen
CC[C@H](C)CCCCC(=O)N[C@@H](CCN)C(=O)N[C@H](C(=O)N[C@H](CCN)C(=O)N[C@H]1CCNC(=O)[C@H]([C@@H](C)O)NC(=O)[C@H](CCN)NC(=O)[C@H](CCN)NC(=O)[C@H]([C@@H](C)O)NC(=O)[C@@H](CC(C)C)NC(=O)[C@H](CCN)NC1=O)[C@@H](C)O [Native Polymyxin A, Polymyxin A] (X1-[Dab]T[dDab][Dab][Dab][dL]T[Dab][Dab]T; lactam 4-C)	C	B	B	A	A	A	C	B	C	B	A	A	A	C	C	B	A	A	C	C	P. aeru MIC50 (P. aeru): A; P. aeru MIC90 (P. aeru): C; Clinical signs ([1]; IV dose of 1 mg/kg, similar experiment): no clinical signs were observed; K. pneu MIC90 (K. pneu): C; Lungs cleared within one log10 of limit of detection (P. aeruginosa 44 [6]): not observed
